Measured values reported in article PMC5069167 (Nature chemical biology, 2016).

Target: T1, PolD (Streptomyces asoensis, UniProt C1IC31)
T1 sequence (C1IC31 1-215): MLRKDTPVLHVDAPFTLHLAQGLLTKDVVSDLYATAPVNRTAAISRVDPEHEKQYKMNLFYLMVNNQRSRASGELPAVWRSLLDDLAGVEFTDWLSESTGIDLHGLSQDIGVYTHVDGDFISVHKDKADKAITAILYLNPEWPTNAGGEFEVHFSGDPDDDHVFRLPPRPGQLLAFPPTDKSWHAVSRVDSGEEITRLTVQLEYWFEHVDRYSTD
Test: binding and oxidation of alpha-KG, succinate detection by HR-MS
Type: biochemical
Settings: Fe(II), ascorbate 5 mM, O2, pH 7.6, 25 °C

With O=C(O)CCC(=O)C(=O)O [α-KG] the “binding and oxidation of alpha-KG, succinate detection by HR-MS” value was “non-heme mono-iron center capable of binding and oxidizing α-KG”.
